Reference: patent US20250188068A1, “AMIDO CYCLOPROPYL DERIVATIVES AS LPA RECEPTOR INHIBITORS” (CHIESI FARMACEUTICI S.P.A., priority 2022, published 2025)

Each molecule was assayed against T1, human recombinant LPA1 expressed in CHO cells (Homo sapiens, UniProt Q92633) (assay: FLIPR calcium mobilization assay, LPA1 antagonism in CHO-hLPA1 cells). Conditions: inhibition of LPA EC80 Ca2+ response, 30 min pre-incubation, range of activity.
T1 construct: expressed in transfected cells; host or cells: CHO cells (CHO-hLPA1 cell line)
Assay type: cell-based
Description: The effectiveness of compounds of the present invention as LPA1 antagonist can be determined at the human recombinant LPA1 expressed in CHO cells, using a FLIPR assay in 384 well format.
CHO-hLPA1 cell lines are cultured in a humidified incubator at 5% CO2 in DMEM/F-12 (1:1) MIXTURE with 2 mM Glutamax, supplemented with 10% of Foetal Bovine Serum, 1 mM Sodium Pyruvate, 11 mM Hepes and 1× Penicillin/Streptomycin. CHO hLPA1 cells are seeded into black walled clear-bottom 384-well plates (#781091, Greiner Bio-One GmbH) at a density of 7,500 cells per well in 50 μl culture media and grown overnight in a 37° C. humidified CO2-incubator. Serial dilutions (1:3 or 1:4, 11 points CRC) of compounds are performed in 100% DMSO at 200× the final concentration. The compounds are diluted 1:50 prior to the experiment with Assay Buffer (20 mM HEPES, 145 mM NaCl, 5 mM KCl, 5.5 mM glucose, 1 mM MgCl2 and 2 mM CaCl2), pH 7.4 containing 0.01% Pluronic F-127) to obtain a solution corresponding to […] the final concentration in the assay (4×, 2% DMSO). The final concentration of DMSO in the assay will be 0.5% in each well. Medium is removed by aspiration and cells are then incubated with 30 μl of a loading solution containing 5 μM of the cytoplasmic Ca2+ indicator Cal-520 AM in Assay Buffer containing 2.5 mM probenecid for 30 min at 37° C. incubator (cell loading). The loaded cell plates are transferred into the FLIPR instrument and calcium responses are monitored during the on-line addition protocols. For testing of compounds, after the cell loading, 10 μl/well of 4× antagonists' solution was added onto the cells. After 30 min pre-incubation (at 37° C.), 10 μl/well of 5× concentrated LPA EC80 was added and Ca2+ mobilization responses was followed during the on-line addition protocol. Intracellular peak fluorescence values subtracted by baseline fluorescence are exported and analysed to determine IC50 values, respectively. The calcium response is expressed as percentage of the maximal inhibition of the EC80 agonist response.
The raw data obtained in unstimulated controls (DMSO, no LPA) are set as “100% inhibition”, while the raw data obtained in negative controls, i.e. in the absence of compounds and stimulating with LPA EC80, are set as “0% inhibition”.
The raw data (peak height expressed as relative fluorescence units) are normalized and transformed into “percent of inhibition”. Curve fitting and pIC50 (−Log IC50) estimations are carried out using a four-parameter logistic model using XLfit Software.

T1 sequence (Q92633 whole entry): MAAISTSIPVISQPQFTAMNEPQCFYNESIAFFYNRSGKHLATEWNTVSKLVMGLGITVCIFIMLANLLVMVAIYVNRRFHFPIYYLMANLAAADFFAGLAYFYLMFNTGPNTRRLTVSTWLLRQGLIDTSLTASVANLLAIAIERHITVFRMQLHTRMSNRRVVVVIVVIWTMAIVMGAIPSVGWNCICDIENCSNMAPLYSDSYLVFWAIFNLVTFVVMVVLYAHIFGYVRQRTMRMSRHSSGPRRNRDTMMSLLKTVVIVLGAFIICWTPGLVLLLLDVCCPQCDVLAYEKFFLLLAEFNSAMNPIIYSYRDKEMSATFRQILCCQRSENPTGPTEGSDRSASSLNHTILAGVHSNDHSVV

| Structure (SMILES) | IC50 [nM] |
| --- | --- |
| Cc1noc(-c2ccc(NC(=O)C3C(c4nnn[nH]4)C3(F)F)cc2)c1NC(=O)O[C@H](C)c1ccccc1Cl (mixture of isomers) [Compound 13, (R)-1-(2-chlorophenyl)ethyl (5-(4-(2,2-difluoro-3-(1H-tetrazol-5-yl)cyclopropane-1-carboxamido)phenyl)-3-methylisoxazol-4-yl)carbamate, mix of Trans diastereomers] | < 50 |
| Cc1nc(-c2onc(C)c2CNc2nccc(-c3ccsc3)n2)ccc1NC(=O)[C@@H]1[C@@H](C(=O)O)C1(F)F [Compound 21, (1S,3S)-2,2-difluoro-3-((2-methyl-6-(3-methyl-4-(((4-(thiophen-3-yl)pyrimidin-2-yl)amino)methyl)isoxazol-5-yl)pyridin-3-yl)carbamoyl)cyclopropane-1-carboxylic acid] | < 50 |
| Cc1noc(-c2ccc(NC(=O)[C@@H]3[C@@H](C(=O)O)C3(F)F)cc2)c1COC(=O)N(C)C1CCCC1 (racemic) [Compound 36, 3-((4-(4-(((cyclopentyl(methyl)carbamoyl)oxy)methyl)-3-methylisoxazol-5-yl)phenyl)carbamoyl)-2,2-difluorocyclopropane-1-carboxylic acid, mix of Trans diastereomers] | 100 to 200 |
| Cc1nc(-c2onc(C)c2CNc2nccc(-c3cccnc3)n2)ccc1NC(=O)[C@@H]1[C@@H](C(=O)O)C1(F)F [Compound 25, (1S,3S)-2,2-difluoro-3-((2-methyl-6-(3-methyl-4-(((4-(pyridin-3-yl)pyrimidin-2-yl)amino)methyl)isoxazol-5-yl)pyridin-3-yl)carbamoyl)cyclopropane-1-carboxylic acid] | < 50 |
| Cc1nc(-c2onc(C)c2NC(=O)O[C@H](C)c2ccccc2Cl)ccc1NC(=O)C1C(c2nsc(=O)[nH]2)C1(F)F (stereo partly drawn) [Compound 43, (R)-1-(2-chlorophenyl)ethyl (5-(5-(2,2-difluoro-3-(5-oxo-4,5-dihydro-1,2,4-thiadiazol-3-yl)cyclopropane-1-carboxamido)-6-methylpyridin-2-yl)-3-methylisoxazol-4-yl)carbamate] | < 50 |
| Cc1nc(-c2onc(C)c2Nc2cncc(OC(C)C)n2)ccc1NC(=O)C1C(C(=O)O)C1(F)F (single isomer, unassigned; diastereomer 2) [Compound 11] | < 50 |
| Cc1nc(-c2onc(C)c2NC(=O)O[C@H](C)c2ccccc2Cl)ccc1NC(=O)C1C(c2nnn[nH]2)C1(F)F (mixture of isomers) [Compound 14, (R)-1-(2-chlorophenyl)ethyl (5-(5-(2,2-difluoro-3-(1H-tetrazol-5-yl)cyclopropane-1-carboxamido)-6-methylpyridin-2-y1)-3-methylisoxazol-4-yl)carbamate, mix of Trans diastereomers] | < 50 |
| Cc1nc(-c2onc(C)c2CNc2nccc(-c3cccs3)n2)ccc1NC(=O)[C@@H]1[C@@H](C(=O)O)C1(F)F [Compound 24, (1S,3S)-2,2-difluoro-3-((2-methyl-6-(3-methyl-4-(((4-(thiophen-2-yl)pyrimidin-2-yl)amino)methyl)isoxazol-5-yl)pyridin-3-yl)carbamoyl)cyclopropane-1-carboxylic acid] | < 50 |
| Cc1nc(-c2onc(C)c2CNc2nccc(C3CCCCC3)n2)ccc1NC(=O)C1C(C(=O)O)C1(F)F (single isomer, unassigned; enantiomer 1) [Compound 19, Single Enantiomer 1 of Trans-3-((6-(4-(((4-cyclohexylpyrimidin-2-yl)amino)methyl)-3-methylisoxazol-5-yl)-2-methylpyridin-3-yl)carbamoyl)-2,2-difluorocyclopropane-1-carboxylic acid] | < 50 |

More lines, now with the values ahead:

| IC50 [nM] | Structure (SMILES) |
| --- | --- |
| 50 to 100 | Cc1noc(-c2ccc(N(C)C(=O)C3C(C(=O)O)C3(F)F)cc2)c1NC(=O)O[C@H](C)c1ccccc1Cl (single isomer, unassigned; diastereomer 2) [Compound 9] |
| < 50 | C[C@@H](OC(=O)Nc1c(-c2ccc(NC(=O)[C@@H]3[C@@H](C(=O)O)C3(F)F)cc2)nnn1C)c1ccccc1Cl [Compound 35, (1S,3S)-3-((4-(5-((((R)-1-(2-chlorophenyl)ethoxy)carbonyl)amino)-1-methyl-1H-1,2,3-triazol-4-yl)phenyl)carbamoyl)-2,2-difluorocyclopropane-1-carboxylic acid] |
| < 50 | Cc1nc(-c2onc(C)c2NC(=O)O[C@H](C)c2ccccc2Cl)ccc1CNC(=O)C1C(C(=O)O)C1(F)F (mixture of isomers) [Compound 17, 3-(((6-(4-((((R)-1-(2-chlorophenyl)ethoxy)carbonyl)amino)-3-methylisoxazol-5-yl)-2-methylpyridin-3-yl)methyl)carbamoyl)-2,2-difluorocyclopropane-1-carboxylic acid, mix of Trans diastereomers] |
| 100 to 200 | Cc1noc(-c2ccc(N(C)C(=O)C3C(C(=O)O)C3(F)F)cc2)c1NC(=O)O[C@H](C)c1ccccc1Cl (single isomer, unassigned) [Compound 8] |
| < 50 | Cc1nc(-c2onc(C)c2NC(=O)O[C@H](C)c2ccccc2Cl)ccc1NC(=O)C1C(C(=O)O)C1(F)F (stereo partly drawn) [Compound 4, 3-((6-(4-((((R)-1-(2-chlorophenyl)ethoxy)carbonyl)amino)-3-methylisoxazol-5-yl)-2-methylpyridin-3-yl)carbamoyl)-2,2-difluorocyclopropane-1-carboxylic acid] |
| < 50 | Cc1noc(-c2ccc(NC(=O)C3C(C(=O)O)C3(F)F)cn2)c1NC(=O)O[C@H](C)c1ccccc1Cl (single isomer, unassigned) [Compound 5] |
| 100 to 200 | C[C@@H](OC(=O)Nc1ncoc1-c1ccc(NC(=O)[C@@H]2[C@@H](C(=O)O)C2(F)F)cc1)c1ccccc1Cl [Compound 40, methyl (1S,3S)-3-((4-(4-((((R)-1-(2-chlorophenyl)ethoxy)carbonyl)amino)oxazol-5-yl)phenyl)carbamoyl)-2,2-difluorocyclopropane-1-carboxlic acid] |
| 100 to 200 | Cc1nc(-c2sccc2NC(=O)O[C@H](C)c2ccccc2Cl)ccc1NC(=O)C1C(C(=O)O)C1(F)F (single isomer, unassigned; diastereomer 2) [Compound 30] |
| < 50 | Cc1nc(-c2snc(C)c2NC(=O)O[C@H](C)c2ccccc2Cl)ccc1NC(=O)C1C(C(=O)O)C1(F)F (single isomer, unassigned; diastereomer 1) [Compound 31] |
| 100 to 200 | C[C@@H](OC(=O)Nc1cccn1-c1ccc(NC(=O)[C@@H]2[C@@H](C(=O)O)C2(F)F)cc1)c1ccccc1Cl [Compound 39] |
| 100 to 200 | C[C@@H](OC(=O)Nc1cn(C)nc1-c1ccc(NC(=O)[C@@H]2[C@@H](C(=O)O)C2(F)F)cc1)c1ccccc1Cl [Compound 38, (1S,3S)-3-((4-(4-((((R)-1-(2-chlorophenyl)ethoxy)carbonyl)amino)-1-methyl-1H-pyrazol-3-yl)phenyl)carbamoyl)-2,2-difluorocyclopropane-1-carboxylic acid] |
| < 50 | Cc1nc(-c2onc(C)c2NC(=O)O[C@H](C)c2ccccc2Cl)ccc1NC(=O)[C@@H]1[C@@H](C(=O)O)C1(F)F [Compound 1, (1S,3S)-3-((6-(4-((((R)-1-(2-chlorophenyl)ethoxy)carbonyl)amino)-3-methylisoxazol-5-yl)-2-methylpyridin-3-yl)carbamoyl)-2,2-difluorocyclopropane-1-carboxylic acid] |
